One may read the IC50 as the midpoint of a concentration-inhibition curve.

One experiment has as its system TDP-43 aggregation in PC12 cells stably expressing TDP-43^Q331K::eGFP. In words: In vitro efficacy assay, TDP-43 aggregation concentration-response. It counts as cell-based. The following applies: Rattus norvegicus, PC-12, inhibition of TDP-43 aggregation; PC12 TDP-43^Q331K::eGFP, 1 hour pre-treatment, 15 μM sodium arsenite for 23 hours; 10-point dose response. How it is done: Exemplary compounds of the invention were evaluated for efficacy in inhibiting TDP-43 inclusions using a concentration-response assay. Briefly, PC12 cells stably expressing a GFP-tagged mutant form of TDP-43 (TDP-43^Q331K::eGFP) were pre-treated for 1 hour with exemplary compounds and stressed with 15 μM sodium arsenite for 23 hours to induce TDP-43 aggregation. The inhibitory effect on TDP-43 aggregation was measured using fluorescence microscopy. The ratio of cells with TDP-43 aggregates was calculated based on the total number of cells with detectable GFP expression.
On to `CCN(CC1CCCN(Cc2cccc(Cl)c2)C1)C(=O)c1cc2ccccc2[nH]1` (stereo not drawn) [Compound 134], for which the IC50 lay within 1.5 to 4 µM.
`COc1cccc(CN2CCC(CN(C)C(=O)c3cc4ccccc4[nH]3)CC2)c1` [compound 257]: the IC50 lay in the range of 4 to 7 µM.
The same measure, in the same setting: for `CCN(CC1CCCN(Cc2ccc(OC)cc2)C1)C(=O)c1cc2ccccc2[nH]1` (stereo not drawn) [Compound 137] the value was 1.5 to 4 µM; for `CCN(CC1CCCN(Cc2ccc(Cl)cc2)C1)C(=O)c1cc2cc(OC)ccc2[nH]1` (stereo not drawn) [Compound 148], below 1.5 µM.
Regarding `O=C(c1cc2ccccc2[nH]1)N(CC1CCN(CCc2ccccc2)CC1)CC(F)(F)F` [compound 305], the IC50 was below 1.5 µM.
The same measure, in the same setting: next, `CCN(CC1CCN(C2CCc3ccc(OC)cc3C2)CC1)C(=O)c1cc2ccccc2[nH]1` (stereo not drawn) [Compound 329]: below 1.5 µM; `CCN(CC1CCCN(C(C)(C)Cc2cccc(Cl)c2)C1)C(=O)c1cc2ccccc2[nH]1` (stereo not drawn) [compound 314]: below 1.5 µM.
Still for that read-out and setting: next, `O=C(NCC1CCN(Cc2ccccc2Cl)CC1)c1cc2ccccc2[nH]1` [compound 293]: above 10 µM.
As to `CCN(CC1CCCN(C(=O)Cc2ccc(OC)cc2)C1)C(=O)c1cc2ccccc2[nH]1` (stereo not drawn) [Compound 201], the IC50 is below 1.5 µM.
Turning to `CCN(CC1CCCN(Cc2cc3ccccc3o2)C1)C(=O)c1cc2ccccc2[nH]1` (stereo not drawn) [Compound 206], the IC50 was below 1.5 µM.
As for `CCN(CC1CCCN(Cc2ccc(Cl)cc2)C1)C(=O)c1cc2cc(OCc3ccccc3)ccc2[nH]1` (stereo not drawn) [Compound 173], the IC50 is 1.5 to 4 µM.
On the same count and under the same terms, next, `CCN(CC1CCCN(CCc2cccc(OC)c2)C1)C(=O)c1ccc[nH]1` (stereo not drawn) [Compound 231]: 1.5 to 4 µM; `COc1cccc(CCNCCNC(=O)c2cc3ccccc3[nH]2)c1` [Compound 221]: 1.5 to 4 µM; `COc1ccc(CN2CCC(CN(C)C(=O)c3cc4ccccc4[nH]3)CC2)cc1` [compound 261]: 1.5 to 4 µM.
On the same count and under the same terms, for `CN(CC1CCN(Cc2cccc(Cl)c2)CC1)C(=O)c1cc2ccccc2[nH]1` [compound 256] the value was above 10 µM; for `CCN(CC1CCCN(CCc2cccc(OC)c2)C1)C(=O)c1ccc(C)[nH]1` (stereo not drawn) [Compound 246], 1.5 to 4 µM.
On the same count and under the same terms, next, `CC(C)(Cc1ccccc1)N1CCCC(CN(CC(F)(F)F)C(=O)c2cc3ccccc3[nH]2)C1` (stereo not drawn) [Compound 351]: below 1.5 µM; `CCN(CC1CCCNC1)C(=O)c1cc2ccc(C)cc2[nH]1` (stereo not drawn) [compound 417]: above 10 µM.
`CCN(CC1CCCN(CCc2ccccc2Cl)C1)C(=O)c1cc2ccccc2[nH]1` (stereo not drawn) [Compound 139]: the IC50 was in the range of 1.5 to 4 µM.
Same read-out and setting: next, `COc1ccccc1CN1CCC(CN(C)C(=O)c2cc3ccccc3[nH]2)CC1` [compound 260]: 4 to 7 µM.
Still for that read-out and setting: for `CCN(CC1CCN(Cc2ccc(Cl)cc2)CC1)C(=O)c1cc2ccccc2[nH]1` [compound 289] the value was above 10 µM; for `CCN(CC1CCCN(CCc2ccc(Cl)cc2)C1)C(=O)c1cc2ccccc2[nH]1` (stereo not drawn) [Compound 128], below 1.5 µM.
In the case of `CCN(CC1CCCN(CCc2cccc(OC)c2)C1)C(=O)c1cc2cc(OC)ccc2[nH]1` (stereo not drawn) [Compound 244], the IC50 is above 10 µM.
The same measure, in the same setting: for `CCN(CC1CCN(C(C)(C)CC2CCOCC2)CC1)C(=O)c1cc2ccccc2[nH]1` [Compound 365] the value was 1.5 to 4 µM; for `CCN(CC1CCN(Cc2ccc(F)cc2)CC1)C(=O)c1cc2ccccc2[nH]1` [compound 290], above 10 µM; for `CCN(CC1CCCN(Cc2ccc(OC)cc2)C1)C(=O)c1cc2c(F)cc(F)cc2[nH]1` (stereo not drawn) [Compound 170], below 1.5 µM.
Still for that read-out and setting: for `CCN(CC1CCCN(CCc2ccccc2OC)C1)C(=O)c1cc2ccccc2[nH]1` (stereo not drawn) [Compound 124] the value was 4 to 7 µM.
On to `COc1ccc(C(=O)N2CCC(CNC(=O)c3cc4ccccc4[nH]3)CC2)cc1` [Compound 321], for which the IC50 is below 1.5 µM.
Same read-out and setting: next, `CCN(CC1CCCN(S(=O)(=O)c2ccc(OC)cc2)C1)C(=O)c1cc2ccccc2[nH]1` (stereo not drawn) [Compound 200]: 1.5 to 4 µM.
Same read-out and setting: for `CCN(CC1CCN(C2(Cc3cccc(OC)c3)CC2)CC1)C(=O)c1cc2ccccc2[nH]1` [Compound 360] the value was below 1.5 µM; for `CCN(CC1CCNCC1)C(=O)c1cc2cc(OC(F)F)ccc2[nH]1` [compound 402], above 10 µM.
On to `COc1cccc(CC(C)(C)N2CCC(CN(CC(F)(F)F)C(=O)c3cc4ccccc4[nH]3)CC2)c1` [Compound 350], for which the IC50 was below 1.5 µM.
With `CCN(CC1CCCNC1)C(=O)c1cc2cc(Cl)ccc2[nH]1` (stereo not drawn) [compound 420], the IC50 was above 10 µM.
As to `CCN(CC1CCCN(Cc2ccc(OC(F)(F)F)cc2)C1)C(=O)c1cc2cc(OC(F)(F)F)ccc2[nH]1` (stereo not drawn) [Compound 176], the IC50 is above 10 µM.
Take `CCN(CC1CCCNC1)C(=O)c1cc2ccc(OC)cc2[nH]1` (stereo not drawn) [compound 419]: the IC50 was above 10 µM.
The same measure, in the same setting: next, `CCN(CC1CCCN(C(C)(C)Cc2cccc(OC(F)F)c2)C1)C(=O)c1cc2cc(OC(F)F)ccc2[nH]1` (stereo not drawn) [compound 315]: below 1.5 µM; `CCN(CC1CCN(CCc2cccc(OC)c2)CC1)C(=O)c1cc2ccccc2[nH]1` [compound 253]: 1.5 to 4 µM.
Still for that read-out and setting: next, `CCN(CC1CCN(Cc2cccc(Cl)c2)CC1)C(=O)c1cc2ccccc2[nH]1` [compound 266]: 4 to 7 µM.
The same measure, in the same setting: for `COc1cccc(CCN2CCCC(CN(C(=O)c3cc4ccccc4[nH]3)c3ccccc3)C2)c1` (stereo not drawn) [Compound 144] the value was below 1.5 µM.
In the case of `CCN(CC1CCCN(Cc2cccc(OC)c2)C1)C(=O)c1cc2ccccc2[nH]1` (stereo not drawn) [compound 122], the IC50 was below 1.5 µM.
Still for that read-out and setting: next, `CCN(CC1CCN(Cc2ccc(OC)cc2)CC1)C(=O)c1cc2ccccc2[nH]1` [compound 288]: below 1.5 µM.
Take `CCN(CC1CCCN(Cc2ccc(Cl)cc2)C1)C(=O)c1cc2cc(Cl)ccc2[nH]1` (stereo not drawn) [Compound 160]: the IC50 is below 1.5 µM.
On to `CCN(CC1CCN(Cc2cccc(OC)c2)CC1)C(=O)c1cc2ccccc2[nH]1` [compound 267], for which the IC50 lay in the range of 1.5 to 4 µM.
Turning to `CCN(CC1CCCN(CCc2ccc(F)cc2)C1)C(=O)c1cc2ccccc2[nH]1` (stereo not drawn) [Compound 126], the IC50 was above 10 µM.
Still for that read-out and setting: for `CCN(CC1CCCN(Cc2ccc(-c3nnn[nH]3)cc2)C1)C(=O)c1cc2ccccc2[nH]1` (stereo not drawn) [Compound 225] the value was above 10 µM; for `CCN(CC1CCCN(CCc2cccc(OC)c2)C1)C(=O)c1nc2ccccc2[nH]1` (stereo not drawn) [Compound 230], below 1.5 µM; for `CCN(CC1CCCN(Cc2ccc(OC)cc2)C1)C(=O)c1cc2c(Cl)cc(Cl)cc2[nH]1` (stereo not drawn) [Compound 154], 1.5 to 4 µM.
As to `CCN(CC1CCCN(C(C)(C)Cc2cccc(OC)c2)C1)C(=O)c1cc2ccccc2[nH]1` (stereo not drawn) [compound 312], the IC50 was in the range of 1.5 to 4 µM.
The same measure, in the same setting: for `COc1cccc(CCN2CCCC(CN(CC3CCCCC3)C(=O)c3cc4ccccc4[nH]3)C2)c1` (stereo not drawn) [Compound 220] the value was above 10 µM.
Same read-out and setting: for `CCN(CC1CCCN(C(C)(C)c2cc3ccccc3o2)C1)C(=O)c1cc2ccccc2[nH]1` (stereo not drawn) [compound 317] the value was 1.5 to 4 µM; for `CCN(CC1CCCN(Cc2ccc(Cl)cc2)C1)C(=O)c1cc2cc(OC)c(OC)cc2[nH]1` (stereo not drawn) [Compound 152], above 10 µM.
In the case of `CCN(CC1CCN(Cc2ccccc2F)CC1)C(=O)c1cc2ccccc2[nH]1` [compound 268], the IC50 lay within 1.5 to 4 µM.
Still for that read-out and setting: for `CCN(CC1CCCN(CCc2cccc(OC)c2)C1)C(=O)c1ccco1` (stereo not drawn) [Compound 247] the value was 4 to 7 µM.
For `CCN(CC1CCCN(Cc2ccc(Cl)cc2)C1)C(=O)c1cc2c(OC)cccc2[nH]1` (stereo not drawn) [Compound 163], the concentration for half-maximal inhibition (IC50) is below 1.5 µM.
On the same count and under the same terms, next, `CCN(CC1CCCN(C2Cc3ccccc3C2)C1)C(=O)c1cc2ccccc2[nH]1` (stereo not drawn) [Compound 209]: 4 to 7 µM.
The same measure, in the same setting: next, `CCN(CC1CCCN(Cc2ccc(OC)cc2)C1)C(=O)c1cc2ccc(C)cc2[nH]1` (stereo not drawn) [Compound 156]: 1.5 to 4 µM; `COc1ccccc1CN1CCC(CN(C(=O)c2cc3ccccc3[nH]2)C(C)C)CC1` [compound 282]: above 10 µM.
As for `CCN(CC1CCCNC1)C(=O)c1cc2cc(F)ccc2[nH]1` (stereo not drawn) [compound 414], the IC50 is above 10 µM.
Still for that read-out and setting: for `CC(C)(Cc1cccc(F)c1)N1CCCC(CN(CC(F)(F)F)C(=O)c2cc3ccccc3[nH]2)C1` (stereo not drawn) [Compound 352] the value was below 1.5 µM.
Turning to `O=C(c1cc2ccccc2[nH]1)N(CC1CCN(CCc2cccc(F)c2)CC1)CC(F)(F)F` [compound 306], the IC50 is below 1.5 µM.
For the compound `CCN(CC1CCCN(Cc2ccc(Cl)cc2)C1)C(=O)c1cc2cc(F)c(F)cc2[nH]1` (stereo not drawn) [Compound 172], the IC50 was 1.5 to 4 µM.
Same read-out and setting: next, `CCN(CC1CCCN(CCc2cccc(OC)c2)C1)C(=O)c1n[nH]c2ccccc12` (stereo not drawn) [Compound 249]: below 1.5 µM; `CCN(CC1CCN(C(C)(C)Cc2cccc(F)c2F)CC1)C(=O)c1cc2ccccc2[nH]1` [Compound 342]: above 10 µM; `COc1cccc(CCN2CCCC(CN(C(=O)c3cc4ccccc4[nH]3)C(C)C)C2)c1` (stereo not drawn) [Compound 143]: below 1.5 µM.
On to `CCN(CC1CCN(C2CCc3ccccc32)CC1)C(=O)c1cc2ccccc2[nH]1` (stereo not drawn) [Compound 328], for which the IC50 lay in the range of 4 to 7 µM.
Same read-out and setting: for `CCN(CC1CCCN(Cc2ccc(Cl)cc2)C1)C(=O)c1cc2c(Cl)cc(Cl)cc2[nH]1` (stereo not drawn) [Compound 153] the value was 1.5 to 4 µM; for `CCN(CC1CCCN(CCc2ccccc2F)C1)C(=O)c1cc2ccccc2[nH]1` (stereo not drawn) [Compound 123], 1.5 to 4 µM.

Still in this experiment, the particulars now being: inhibition of TDP-43 aggregation; PC12 TDP-43^Q331K::eGFP, 1 hour pre-treatment, 15 μM sodium arsenite for 23 hours; 10-point dose response.
Take `CCN(CC1CCCN(C(C)(C)c2cc3ccccc3o2)C1)C(=O)c1cc2ccccc2[nH]1` (stereo not drawn) [Compound 338]: the IC50 was below 1.5 µM.
Same read-out and setting: for `CCN(CC1CCCN(C(C)(C)Cc2cccc(OC)c2)C1)C(=O)c1cc2cc(OC)ccc2[nH]1` (stereo not drawn) [compound 313] the value was above 10 µM.
